Assay results reported in US10017477B2, “Janus kinase inhibitors and uses thereof” (Dana-Farber Cancer Institute, Inc., priority 2014, dated 2018).
Values joined by “and” are separate entries in the source; they are usually repeats but may differ in a detail not shown here. Equal values may be shown once. Read-outs that look alike come from different tables or passages of the source.

Experiments:
[1] = biological target: T1, Ba/F3 JAK3 (Homo sapiens, UniProt P52333); assay: CellTiter-Glo cell proliferation, Ba/F3 JAK3; assay type: cell-based, murine; details: 72 hours, read-out: Ba/F3 IC50 JAK3
T1 construct: candidate: TEL (ETV6) N-terminal oligomerisation domain
T1 sequence (P52333 1-1124): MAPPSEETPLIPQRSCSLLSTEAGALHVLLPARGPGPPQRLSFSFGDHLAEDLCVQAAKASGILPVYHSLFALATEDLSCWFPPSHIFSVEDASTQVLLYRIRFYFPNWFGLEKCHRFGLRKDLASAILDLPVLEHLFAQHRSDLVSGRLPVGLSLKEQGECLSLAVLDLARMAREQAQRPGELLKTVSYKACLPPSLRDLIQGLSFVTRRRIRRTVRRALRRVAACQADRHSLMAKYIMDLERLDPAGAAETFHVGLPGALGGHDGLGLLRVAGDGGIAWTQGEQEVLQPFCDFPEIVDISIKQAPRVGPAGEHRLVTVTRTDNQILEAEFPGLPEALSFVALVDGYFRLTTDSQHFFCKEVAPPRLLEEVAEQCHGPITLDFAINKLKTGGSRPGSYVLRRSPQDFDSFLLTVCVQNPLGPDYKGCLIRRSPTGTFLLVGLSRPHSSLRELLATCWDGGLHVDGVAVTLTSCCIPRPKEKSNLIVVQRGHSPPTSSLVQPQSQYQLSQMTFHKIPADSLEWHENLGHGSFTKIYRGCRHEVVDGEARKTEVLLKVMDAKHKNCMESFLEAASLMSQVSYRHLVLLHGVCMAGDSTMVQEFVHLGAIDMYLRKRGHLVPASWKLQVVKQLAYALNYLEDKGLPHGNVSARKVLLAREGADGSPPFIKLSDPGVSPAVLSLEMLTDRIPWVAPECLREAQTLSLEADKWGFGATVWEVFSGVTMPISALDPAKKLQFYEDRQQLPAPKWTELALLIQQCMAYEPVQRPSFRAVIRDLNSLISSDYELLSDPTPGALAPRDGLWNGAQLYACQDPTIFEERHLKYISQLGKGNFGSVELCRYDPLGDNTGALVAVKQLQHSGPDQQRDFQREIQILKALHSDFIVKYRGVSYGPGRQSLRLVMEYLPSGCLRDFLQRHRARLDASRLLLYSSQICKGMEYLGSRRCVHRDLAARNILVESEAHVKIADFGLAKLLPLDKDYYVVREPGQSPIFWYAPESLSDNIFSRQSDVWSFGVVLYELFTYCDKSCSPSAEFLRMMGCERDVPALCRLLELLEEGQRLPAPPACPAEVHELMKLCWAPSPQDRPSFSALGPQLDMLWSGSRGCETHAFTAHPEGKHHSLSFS

[2] = system: NKL (a Natural Killer Cell Lymphoma (NKCL) cell line); assay: CellTiter-Glo cell proliferation, NKL cancer cell line; assay type: cell-based
Procedure: (§1) CellTiter-Glo® Luminescent cell viability assay (Promega) was used to assess cell survival following treatment with the compounds described herein. Cells were seeded into 384 well plates with the EL406 Combination Washer Dispenser (BioTek Instruments, Inc.), and the compounds were injected into the cells culture media with the JANUS Automated Workstation (PerkinElmer Inc.). Cells were treated with a series diluted inhibitors (20 to 0.04 μM) for 72 hours at 37° C. Luminescent measurement is performed using the 2104 Envision® Multilabel Reader (PerkinElmer Inc.). The cell lines employed include Ba/F3 (a murine interleukin-3 dependent pro-B cell line), NKL (a Natural Killer Cell Lymphoma (NKCL) cell line), CMK (an Acute Megakaryoblastic Leukemia (AMKL) cell line).

[3] = system: EGFR (T790M) dependent Ba/F3; assay: Proliferation of EGFR (T790M) dependent Ba/F3; assay type: cell-based, murine; details: Mus musculus, BaF3; at 200 nM
Procedure: as §1

[4] = system: IL-4 signaling (JAK3 dependent); assay: Profiling on primary immune cells, IL-4 signaling; assay type: cell-based
[5] = system: CMK (an Acute Megakaryoblastic Leukemia (AMKL) cell line); assay: CellTiter-Glo cell proliferation, CMK cancer cell line; assay type: cell-based
Procedure: as §1

[6] = Aqueous solubility; assay type: physicochemical; details: aqueous medium; at 25° C.
[7] = Pharmacokinetics in mouse; assay type: in vivo; details: blood
[8] = biological target: T2, JAK3 (Homo sapiens, UniProt P52333); assay: INVITROGEN Select Screening assay, enzymatic IC50, JAK3; assay type: biochemical
T2 construct: purchased INVITROGEN (Select Screening assay service)
T2 sequence (P52333 1-1124): T1 sequence (P52333 1-1124)

[9] = biological target: T3, AURKB (Homo sapiens, UniProt Q96GD4); assay: INVITROGEN Select Screening assay, enzymatic IC50, AURKB; assay type: biochemical
T3 construct: purchased INVITROGEN (Select Screening assay service)
T3 sequence (Q96GD4 whole entry): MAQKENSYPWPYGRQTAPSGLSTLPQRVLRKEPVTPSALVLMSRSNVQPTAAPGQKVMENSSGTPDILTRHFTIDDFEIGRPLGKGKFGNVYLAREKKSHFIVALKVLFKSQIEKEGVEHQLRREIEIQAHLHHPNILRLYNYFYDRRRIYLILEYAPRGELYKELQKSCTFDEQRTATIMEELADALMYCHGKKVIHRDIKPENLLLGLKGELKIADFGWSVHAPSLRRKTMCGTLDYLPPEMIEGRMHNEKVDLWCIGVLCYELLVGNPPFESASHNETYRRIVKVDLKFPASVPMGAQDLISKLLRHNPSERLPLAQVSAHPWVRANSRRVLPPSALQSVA
Source text: (§2) The in vitro activity of the compounds described herein in inhibiting JAK3 and other kinases were obtained using an INVITROGEN Select Screening assay as known in the art.

[10] = biological target: T4, AURKA (Homo sapiens, UniProt O14965); assay: INVITROGEN Select Screening assay, enzymatic IC50, AURKA; assay type: biochemical
T4 construct: purchased INVITROGEN (Select Screening assay service)
T4 sequence (O14965 1-403): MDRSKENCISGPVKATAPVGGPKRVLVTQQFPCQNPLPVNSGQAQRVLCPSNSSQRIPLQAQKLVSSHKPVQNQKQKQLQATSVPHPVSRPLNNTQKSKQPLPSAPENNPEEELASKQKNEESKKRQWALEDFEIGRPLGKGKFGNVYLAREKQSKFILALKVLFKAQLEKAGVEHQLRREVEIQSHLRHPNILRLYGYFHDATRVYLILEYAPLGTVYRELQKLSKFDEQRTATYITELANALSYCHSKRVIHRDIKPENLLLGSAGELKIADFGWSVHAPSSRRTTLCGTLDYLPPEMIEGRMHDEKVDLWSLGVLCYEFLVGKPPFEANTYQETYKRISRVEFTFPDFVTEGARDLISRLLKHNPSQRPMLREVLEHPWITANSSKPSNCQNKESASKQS
Source text: as §2

[11] = biological target: T5, Ba/F3 JAK2 (Homo sapiens, UniProt O60674); assay: CellTiter-Glo cell proliferation, Ba/F3 JAK2; assay type: cell-based, murine; details: 72 hours; read-out: Ba/F3 IC50 JAK2
T5 construct: candidate: TEL (ETV6) N-terminal oligomerisation domain
T5 sequence (O60674 whole entry, change not shown, the tested form may be a part): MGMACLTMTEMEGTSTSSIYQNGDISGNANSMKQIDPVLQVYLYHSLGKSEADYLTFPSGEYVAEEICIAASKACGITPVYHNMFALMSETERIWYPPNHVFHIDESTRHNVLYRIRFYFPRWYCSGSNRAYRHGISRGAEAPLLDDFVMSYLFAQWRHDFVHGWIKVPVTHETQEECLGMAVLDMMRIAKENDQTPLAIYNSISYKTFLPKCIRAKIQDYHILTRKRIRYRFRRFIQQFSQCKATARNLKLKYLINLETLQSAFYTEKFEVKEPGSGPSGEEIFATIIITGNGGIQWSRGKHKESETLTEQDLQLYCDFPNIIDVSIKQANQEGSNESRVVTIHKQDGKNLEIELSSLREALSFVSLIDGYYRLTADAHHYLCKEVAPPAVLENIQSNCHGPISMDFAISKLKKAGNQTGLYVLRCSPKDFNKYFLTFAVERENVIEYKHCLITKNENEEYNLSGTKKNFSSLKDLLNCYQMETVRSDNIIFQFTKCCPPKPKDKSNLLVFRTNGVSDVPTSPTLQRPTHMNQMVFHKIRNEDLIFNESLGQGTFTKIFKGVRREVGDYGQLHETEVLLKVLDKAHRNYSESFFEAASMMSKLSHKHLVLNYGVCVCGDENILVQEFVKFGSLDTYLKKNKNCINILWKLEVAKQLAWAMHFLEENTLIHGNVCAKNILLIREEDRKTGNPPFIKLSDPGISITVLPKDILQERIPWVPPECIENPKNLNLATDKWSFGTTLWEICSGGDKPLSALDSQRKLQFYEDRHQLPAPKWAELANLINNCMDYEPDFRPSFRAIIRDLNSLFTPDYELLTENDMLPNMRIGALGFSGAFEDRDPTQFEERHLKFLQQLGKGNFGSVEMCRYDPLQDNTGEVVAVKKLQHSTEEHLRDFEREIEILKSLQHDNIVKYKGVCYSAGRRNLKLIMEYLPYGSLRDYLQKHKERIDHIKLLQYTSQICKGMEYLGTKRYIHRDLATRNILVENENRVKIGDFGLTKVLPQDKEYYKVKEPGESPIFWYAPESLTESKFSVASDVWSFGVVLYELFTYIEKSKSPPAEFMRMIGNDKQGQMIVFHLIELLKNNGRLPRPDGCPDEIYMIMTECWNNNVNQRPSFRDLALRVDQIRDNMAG

[12] = biological target: T6, Ba/F3 TYK2 (Homo sapiens, UniProt P29597); assay: CellTiter-Glo cell proliferation, Ba/F3 TYK2; assay type: cell-based, murine; details: 72 hours; read-out: Ba/F3 IC50 TYK2
T6 construct: The likeliest candidate is TEL (ETV6) N-terminal oligomerisation domain fused to the TYK2 kinase domain; BCR, another partner, or no partner are also possible
T6 sequence (P29597 whole entry, change not shown, the tested form may be a part): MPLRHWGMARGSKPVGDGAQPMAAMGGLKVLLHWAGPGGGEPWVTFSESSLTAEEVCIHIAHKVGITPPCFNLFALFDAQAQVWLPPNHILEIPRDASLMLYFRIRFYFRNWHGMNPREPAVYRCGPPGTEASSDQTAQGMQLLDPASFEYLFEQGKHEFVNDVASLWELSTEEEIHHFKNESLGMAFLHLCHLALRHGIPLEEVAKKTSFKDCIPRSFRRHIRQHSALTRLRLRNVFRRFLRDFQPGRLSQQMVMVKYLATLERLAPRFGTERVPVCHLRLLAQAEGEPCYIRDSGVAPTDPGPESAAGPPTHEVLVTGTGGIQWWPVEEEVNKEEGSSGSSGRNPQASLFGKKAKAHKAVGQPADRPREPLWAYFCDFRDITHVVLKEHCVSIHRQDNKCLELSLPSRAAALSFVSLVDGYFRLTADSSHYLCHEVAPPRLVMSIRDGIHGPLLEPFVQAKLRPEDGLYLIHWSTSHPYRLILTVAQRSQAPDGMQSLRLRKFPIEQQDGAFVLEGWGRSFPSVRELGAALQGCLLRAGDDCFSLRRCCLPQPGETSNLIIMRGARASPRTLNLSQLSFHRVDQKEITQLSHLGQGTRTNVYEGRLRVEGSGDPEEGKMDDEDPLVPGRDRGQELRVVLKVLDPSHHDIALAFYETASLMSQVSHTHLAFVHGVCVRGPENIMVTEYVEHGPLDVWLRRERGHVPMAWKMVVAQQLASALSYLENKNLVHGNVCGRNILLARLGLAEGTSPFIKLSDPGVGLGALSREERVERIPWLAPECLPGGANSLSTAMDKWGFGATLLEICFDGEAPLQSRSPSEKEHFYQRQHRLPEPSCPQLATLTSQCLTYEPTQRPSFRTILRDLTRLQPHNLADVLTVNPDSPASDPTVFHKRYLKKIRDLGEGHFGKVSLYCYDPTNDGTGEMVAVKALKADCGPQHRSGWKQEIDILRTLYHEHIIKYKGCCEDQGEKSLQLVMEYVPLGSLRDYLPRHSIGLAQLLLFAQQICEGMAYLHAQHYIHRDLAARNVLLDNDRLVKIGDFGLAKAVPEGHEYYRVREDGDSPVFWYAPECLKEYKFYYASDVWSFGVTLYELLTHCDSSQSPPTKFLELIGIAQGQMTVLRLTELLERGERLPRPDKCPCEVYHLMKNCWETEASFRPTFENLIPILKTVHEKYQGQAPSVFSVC

[13] = biological target: T7, Ba/F3 JAK1 (Homo sapiens, UniProt P23458); assay: CellTiter-Glo cell proliferation, Ba/F3 JAK1; assay type: cell-based, murine; details: 72 hours; read-out: Ba/F3 IC50 JAK1
T7 construct: candidate: TEL (ETV6) N-terminal oligomerisation domain
T7 sequence (P23458 whole entry, change not shown, the tested form may be a part): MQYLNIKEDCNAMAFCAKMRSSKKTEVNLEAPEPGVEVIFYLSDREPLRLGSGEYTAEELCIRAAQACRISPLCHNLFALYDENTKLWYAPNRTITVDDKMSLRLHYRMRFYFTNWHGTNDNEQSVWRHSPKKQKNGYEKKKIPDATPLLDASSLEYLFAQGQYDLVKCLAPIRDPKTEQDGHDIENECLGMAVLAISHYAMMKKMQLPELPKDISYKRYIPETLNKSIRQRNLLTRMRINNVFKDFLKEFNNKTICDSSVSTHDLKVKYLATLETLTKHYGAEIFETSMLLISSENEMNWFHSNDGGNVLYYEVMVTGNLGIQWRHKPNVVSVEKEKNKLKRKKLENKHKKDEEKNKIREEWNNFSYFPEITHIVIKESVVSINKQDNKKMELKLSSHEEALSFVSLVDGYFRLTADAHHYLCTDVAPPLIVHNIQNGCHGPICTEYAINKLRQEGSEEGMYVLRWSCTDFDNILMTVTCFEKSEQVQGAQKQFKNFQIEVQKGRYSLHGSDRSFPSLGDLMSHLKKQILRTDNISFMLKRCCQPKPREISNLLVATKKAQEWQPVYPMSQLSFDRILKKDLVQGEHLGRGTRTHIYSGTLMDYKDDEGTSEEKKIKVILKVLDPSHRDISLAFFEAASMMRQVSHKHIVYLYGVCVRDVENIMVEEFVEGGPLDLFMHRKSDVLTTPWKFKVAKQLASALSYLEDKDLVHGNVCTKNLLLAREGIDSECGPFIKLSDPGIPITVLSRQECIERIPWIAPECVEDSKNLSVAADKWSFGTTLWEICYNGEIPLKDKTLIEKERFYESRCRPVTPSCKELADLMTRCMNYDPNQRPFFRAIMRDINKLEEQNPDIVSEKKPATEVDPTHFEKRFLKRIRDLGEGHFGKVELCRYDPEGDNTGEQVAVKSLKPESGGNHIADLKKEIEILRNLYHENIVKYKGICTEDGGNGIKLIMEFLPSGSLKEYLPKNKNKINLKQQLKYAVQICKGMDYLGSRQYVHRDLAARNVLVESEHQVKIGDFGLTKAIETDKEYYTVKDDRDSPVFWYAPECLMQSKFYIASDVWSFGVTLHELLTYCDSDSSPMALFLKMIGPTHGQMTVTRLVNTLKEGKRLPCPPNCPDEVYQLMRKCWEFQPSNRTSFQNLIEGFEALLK

[14] = biological target: T8, Ba/F3 ABL (Homo sapiens, UniProt P00519); assay: CellTiter-Glo cell proliferation, Ba/F3 ABL; assay type: cell-based, murine; details: 72 hours; read-out: Ba/F3 IC50 ABL
T8 construct: candidates: BCR or TEL (ETV6)
T8 sequence (P00519 whole entry, change not shown): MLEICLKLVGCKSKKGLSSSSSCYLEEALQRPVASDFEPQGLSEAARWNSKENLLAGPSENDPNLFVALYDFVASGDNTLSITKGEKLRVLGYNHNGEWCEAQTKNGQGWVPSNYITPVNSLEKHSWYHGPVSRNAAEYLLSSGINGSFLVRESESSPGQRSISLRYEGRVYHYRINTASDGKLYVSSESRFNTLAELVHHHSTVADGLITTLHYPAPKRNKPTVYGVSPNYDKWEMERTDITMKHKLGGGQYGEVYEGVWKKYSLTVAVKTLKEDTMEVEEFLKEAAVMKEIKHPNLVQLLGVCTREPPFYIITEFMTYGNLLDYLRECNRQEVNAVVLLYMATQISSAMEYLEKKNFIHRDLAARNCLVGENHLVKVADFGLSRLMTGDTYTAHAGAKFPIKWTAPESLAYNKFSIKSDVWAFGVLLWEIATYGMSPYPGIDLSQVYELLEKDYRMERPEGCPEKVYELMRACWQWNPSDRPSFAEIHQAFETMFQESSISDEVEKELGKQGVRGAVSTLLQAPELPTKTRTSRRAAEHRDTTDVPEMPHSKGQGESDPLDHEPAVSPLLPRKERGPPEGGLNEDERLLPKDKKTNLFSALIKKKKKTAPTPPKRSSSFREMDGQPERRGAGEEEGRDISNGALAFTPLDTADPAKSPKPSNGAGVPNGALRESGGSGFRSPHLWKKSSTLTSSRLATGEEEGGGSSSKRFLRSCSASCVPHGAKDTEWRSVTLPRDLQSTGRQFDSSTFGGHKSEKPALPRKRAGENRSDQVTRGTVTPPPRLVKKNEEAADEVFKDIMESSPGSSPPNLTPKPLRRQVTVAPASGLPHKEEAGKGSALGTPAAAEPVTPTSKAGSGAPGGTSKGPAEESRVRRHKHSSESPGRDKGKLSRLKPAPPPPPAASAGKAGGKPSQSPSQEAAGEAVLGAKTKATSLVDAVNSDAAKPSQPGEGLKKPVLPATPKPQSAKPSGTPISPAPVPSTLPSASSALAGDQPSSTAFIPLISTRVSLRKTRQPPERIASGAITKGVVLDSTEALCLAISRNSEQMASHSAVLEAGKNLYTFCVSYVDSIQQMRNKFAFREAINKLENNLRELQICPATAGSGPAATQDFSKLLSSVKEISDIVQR
Procedure: as §1

GI50 [1] | IC50 [8] [µM] | GI50 [11] [µM] | GI50 [12] [µM] | GI50 [13] [µM] | GI50 [14] [µM] | Structure (SMILES) | also measured
0.0604 µM and 0.0626 µM | – | – | – | – | – | C=CC(=O)Nc1cccc(CNc2nc(Nc3ccc(N4CCN(C)CC4)cc3OC)ncc2Cl)c1 [Compound 2, N-(3-(((5-chloro-2-((2-methoxy-4-(4-methylpiperazin-1-yl)phenyl)amino)pyrimidin-4-yl)amino)methyl)phenyl)acrylamide] | GI50 ([1]; listed as compound 2): 0.06 µM; IC50 ([2]; 72 hours, read-out: Cancer cell lines IC50 NKL): 0.0197 µM; EC50 ([2]; IL-2 dependent NKL cell line, read-out: anti-proliferative potency EC50, NKL): 0.02 µM; inhibition at 0.2 µM [3]: > 90%; effect on IL-4 signaling [4]: blocks IL-4 signaling; IC50 ([5]; 72 hours, read-out: Cancer cell lines IC50 CMK): 8.28 µM; anti-proliferative potency on AMKL cell line (in words) ([5]; cell line with activating mutation A572V of JAK3): doesn't shown anti-proliferative potency; solubility [6]: > 250 µM; Cmax ([7]; PO dose at 10 mg/kg): 0.294 µg/mL; Tmax ([7]; PO dose at 10 mg/kg): 2 h; bioavailability ([7]; PO dose at 10 mg/kg): 23%; Vd ([7]; intravenous dose at 1 mg/kg, read-out: Vdss): 1.2 L/kg
– | 0.0332 | – | – | – | – | C=CC(=O)Nc1ccc(CNc2nc(Nc3ccc(N4CCN(C)CC4)cc3OC)ncc2Br)cc1 [Compound 3] | –
– | 0.0572 | – | – | – | – | C=CC(=O)Nc1ccc(CNc2nc(Nc3ccc(N4CCN(C)CC4)cc3OC)ncc2C(F)(F)F)cc1 [Compound 4] | –
– | 5.42 | – | – | – | – | CCC(=O)Nc1ccc(CNc2nc(Nc3ccc(N4CCN(C)CC4)cc3OC)ncc2Cl)cc1 [Compound 5] | –
– | – | – | – | – | – | C=CC(=O)Nc1ccc(CNc2nc(Nc3ccc(N4CCOCC4)cc3)ncc2Cl)cc1 [Compound 13] | IC50 [9]: 0.835 µM; IC50 [10]: 0.173 µM
0.0305 µM | 0.0035 | 1.87 | 0.607 | 1.29 | 2.52 | C=CC(=O)Nc1ccc(CNc2nc(Nc3ccc(N4CCOCC4)c(F)c3)ncc2Cl)cc1 [Compound 14] | IC50 [9]: 1.31 µM; IC50 [10]: 0.279 µM
0.0106 µM | 0.000689 | 0.2 | 0.144 | 0.172 | 0.158 | C=CC(=O)Nc1ccc(CNc2nc(Nc3ccc(N4CCN(C)CC4)cc3)ncc2Cl)cc1 [Compound 15] | –
0.0178 µM | 0.00279 | 0.538 | 0.284 | 0.379 | 0.453 | C=CC(=O)Nc1ccc(CNc2nc(Nc3ccc(N4CCN(C)CC4)c(F)c3)ncc2Cl)cc1 [Compound 16] | –
0.246 µM | 0.0153 | 2.3 | 1.53 | 2.88 | 4.55 | C=CC(=O)Nc1cccc(CNc2cc(Nc3ccc(N4CCN(C)CC4)cc3OC)ncn2)c1 [Compound 25] | –
– | – | – | – | – | 22.4 | C=CC(=O)Nc1ccc(CNc2cc(Nc3ccc(N4CCN(C)CC4)cc3)ncn2)cc1 [Compound 32] | –
0.576 µM | 0.00121 | 30.1 | 29.5 | > 10 | 29.2 | C=CC(=O)Nc1ccc(CN2C(=O)NCc3cnc(Nc4ccc(N5CCN(C)CC5)cc4)nc32)cc1 [Compound 34] | –
0.88 µM | 0.0304 | 14.6 | 10.1 | 87.6 | 8.84 | C=CC(=O)Nc1ccc(CN2C(=O)N(C)Cc3cnc(Nc4ccc(N5CCN(C)CC5)cc4)nc32)cc1 [Compound 35] | –
– | – | – | 78 | – | – | C=CC(=O)Nc1cccc(CNc2cc(Nc3cnn(C)c3)ncn2)c1 [Compound 38] | –
0.4 µM | 0.0209 | > 50 | 50.1 | 14 | > 50 | C=CC(=O)Nc1cccc(CN2C(=O)N(C)Cc3cnc(Nc4cnn(C)c4)nc32)c1 [Compound 43] | –
– | 0.1 | – | – | – | – | C=CC(=O)Nc1cccc(CNc2nc(Nc3cc(Cl)c(C4CCOCC4)c(Cl)c3)ncc2Cl)c1 [Compound 45] | –
> 50 µM | 8.04 | 18.1 | 8.85 | 56.4 | > 50 | C=CC(=O)Nc1cccc(CN2CCc3cnc(Nc4cnn(C)c4)nc32)c1 [Compound 48] | –
0.1 µM | 0.0205 | > 50 | > 50 | > 50 | > 50 | C=CC(=O)Nc1cccc(CNc2nc(Nc3cc(F)c(C4CCOCC4)c(F)c3)ncc2Cl)c1 [Compound 50] | –
– | 0.17 | – | – | – | – | C=CC(=O)Nc1cccc(CNc2nc(Nc3cc(OC)c(N4CCN(C)CC4)cc3OC)ncc2Cl)c1 [Compound 57] | –
– | 0.22 | – | – | – | – | C=CC(=O)Nc1cccc(CNc2nc(Nc3ccc(N4CCN(C)CC4)cc3OC)ncc2C2CC2)c1 [Compound 91] | –
– | – | > 50 | 15.4 | 18.7 | > 50 | C=CC(=O)Nc1cccc(CNc2nc(Nc3cnn(CCOCCOCCOCCNC(=O)CCCC[C@@H]4SC[C@@H]5NC(=O)N[C@@H]54)c3)ncc2Cl)c1 [Compound 93] | –
